According to ChEMBL document CHEMBL1144455, “A small molecule-kinase interaction map for clinical kinase inhibitors” (Nat Biotechnol, 2005):

Key:
[1] = target: T1, Dual specificity protein kinase TTK (Homo sapiens, UniProt P33981)
T1 sequence (P33981 whole entry): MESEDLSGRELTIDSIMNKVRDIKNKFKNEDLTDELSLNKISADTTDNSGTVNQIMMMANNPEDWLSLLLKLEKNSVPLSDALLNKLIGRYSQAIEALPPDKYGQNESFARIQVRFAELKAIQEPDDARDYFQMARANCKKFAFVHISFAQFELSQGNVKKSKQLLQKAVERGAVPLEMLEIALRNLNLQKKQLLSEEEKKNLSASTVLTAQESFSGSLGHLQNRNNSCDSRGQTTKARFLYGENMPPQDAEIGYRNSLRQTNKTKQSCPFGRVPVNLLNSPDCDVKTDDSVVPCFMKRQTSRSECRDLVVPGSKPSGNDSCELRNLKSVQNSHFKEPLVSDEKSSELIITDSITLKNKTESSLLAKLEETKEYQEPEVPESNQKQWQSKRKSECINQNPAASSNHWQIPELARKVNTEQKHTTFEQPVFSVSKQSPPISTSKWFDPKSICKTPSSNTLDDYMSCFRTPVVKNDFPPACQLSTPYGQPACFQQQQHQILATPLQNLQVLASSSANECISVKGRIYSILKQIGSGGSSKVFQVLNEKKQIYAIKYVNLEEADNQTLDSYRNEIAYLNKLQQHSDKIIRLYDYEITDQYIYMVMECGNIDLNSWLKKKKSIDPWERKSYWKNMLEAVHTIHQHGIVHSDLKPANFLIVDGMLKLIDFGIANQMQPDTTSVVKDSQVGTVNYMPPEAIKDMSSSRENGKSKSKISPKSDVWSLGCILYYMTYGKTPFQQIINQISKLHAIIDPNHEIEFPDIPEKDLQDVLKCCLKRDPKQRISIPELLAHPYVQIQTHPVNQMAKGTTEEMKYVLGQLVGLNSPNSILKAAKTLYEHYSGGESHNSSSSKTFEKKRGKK

[2] = target: T2, Mitogen-activated protein kinase kinase kinase 5 (Homo sapiens, UniProt Q99683)
T2 sequence (Q99683 whole entry): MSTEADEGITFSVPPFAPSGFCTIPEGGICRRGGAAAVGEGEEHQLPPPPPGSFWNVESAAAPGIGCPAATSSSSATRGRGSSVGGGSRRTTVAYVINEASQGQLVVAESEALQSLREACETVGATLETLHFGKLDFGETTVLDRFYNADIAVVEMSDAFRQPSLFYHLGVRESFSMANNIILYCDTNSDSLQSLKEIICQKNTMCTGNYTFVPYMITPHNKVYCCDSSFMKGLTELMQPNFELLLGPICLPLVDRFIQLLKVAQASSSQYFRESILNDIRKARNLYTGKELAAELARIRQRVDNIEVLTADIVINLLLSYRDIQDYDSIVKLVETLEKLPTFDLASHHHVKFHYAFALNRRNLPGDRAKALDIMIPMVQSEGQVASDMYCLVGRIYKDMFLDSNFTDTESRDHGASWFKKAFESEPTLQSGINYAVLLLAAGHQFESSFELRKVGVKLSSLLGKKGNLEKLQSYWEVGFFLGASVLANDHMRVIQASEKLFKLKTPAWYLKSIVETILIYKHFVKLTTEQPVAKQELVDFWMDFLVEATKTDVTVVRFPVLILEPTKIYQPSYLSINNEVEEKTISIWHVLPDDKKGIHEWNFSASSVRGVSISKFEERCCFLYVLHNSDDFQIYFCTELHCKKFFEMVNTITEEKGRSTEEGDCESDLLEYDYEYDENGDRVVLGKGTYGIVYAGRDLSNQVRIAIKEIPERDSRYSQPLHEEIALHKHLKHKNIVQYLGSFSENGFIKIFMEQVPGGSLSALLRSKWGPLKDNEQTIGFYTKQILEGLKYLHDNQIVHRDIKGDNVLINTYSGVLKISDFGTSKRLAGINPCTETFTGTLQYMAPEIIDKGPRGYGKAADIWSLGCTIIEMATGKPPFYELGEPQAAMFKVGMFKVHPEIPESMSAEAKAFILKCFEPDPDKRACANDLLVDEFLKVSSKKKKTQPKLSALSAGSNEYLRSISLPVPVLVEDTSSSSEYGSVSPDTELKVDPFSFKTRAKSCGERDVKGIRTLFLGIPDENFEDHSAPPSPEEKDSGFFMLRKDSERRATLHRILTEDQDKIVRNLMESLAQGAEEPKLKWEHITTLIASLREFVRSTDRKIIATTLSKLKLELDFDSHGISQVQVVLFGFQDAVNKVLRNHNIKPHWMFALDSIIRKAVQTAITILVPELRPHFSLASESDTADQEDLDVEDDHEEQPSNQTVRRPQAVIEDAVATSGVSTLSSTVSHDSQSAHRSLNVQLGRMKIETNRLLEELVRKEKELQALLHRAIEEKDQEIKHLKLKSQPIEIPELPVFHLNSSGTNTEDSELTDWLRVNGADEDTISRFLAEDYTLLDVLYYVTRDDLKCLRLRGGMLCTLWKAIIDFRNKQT

Ephrin type-A receptor 2 = Ephrin type-A receptor 2 (Homo sapiens, UniProt P29317)
Ephrin type-A receptor 2, sequence (P29317 whole entry): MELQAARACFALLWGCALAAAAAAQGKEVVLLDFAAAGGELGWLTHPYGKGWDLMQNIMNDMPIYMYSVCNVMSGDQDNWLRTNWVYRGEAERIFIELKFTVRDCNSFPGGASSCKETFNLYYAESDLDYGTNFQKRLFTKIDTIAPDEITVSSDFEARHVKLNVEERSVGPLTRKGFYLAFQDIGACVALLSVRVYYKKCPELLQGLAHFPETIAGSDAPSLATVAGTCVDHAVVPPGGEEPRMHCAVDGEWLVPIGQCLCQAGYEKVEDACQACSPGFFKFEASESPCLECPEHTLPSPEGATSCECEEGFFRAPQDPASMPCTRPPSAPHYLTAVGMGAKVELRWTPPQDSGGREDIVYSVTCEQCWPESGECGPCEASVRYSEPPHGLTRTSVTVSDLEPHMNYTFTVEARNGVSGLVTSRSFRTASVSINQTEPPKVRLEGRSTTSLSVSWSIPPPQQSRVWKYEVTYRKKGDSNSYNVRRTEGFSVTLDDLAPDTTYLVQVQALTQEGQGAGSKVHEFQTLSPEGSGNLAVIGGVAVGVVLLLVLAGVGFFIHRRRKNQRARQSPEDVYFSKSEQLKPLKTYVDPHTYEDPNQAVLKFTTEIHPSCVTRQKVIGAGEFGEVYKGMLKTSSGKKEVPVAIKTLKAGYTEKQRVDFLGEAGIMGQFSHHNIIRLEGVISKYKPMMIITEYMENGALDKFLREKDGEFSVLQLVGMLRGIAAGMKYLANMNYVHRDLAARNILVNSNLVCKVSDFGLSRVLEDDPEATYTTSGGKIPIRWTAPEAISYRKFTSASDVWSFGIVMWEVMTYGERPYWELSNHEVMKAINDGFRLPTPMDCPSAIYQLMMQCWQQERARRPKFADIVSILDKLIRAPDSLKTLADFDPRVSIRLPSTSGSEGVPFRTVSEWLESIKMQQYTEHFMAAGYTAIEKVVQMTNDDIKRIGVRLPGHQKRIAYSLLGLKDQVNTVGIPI

[3] = target: T3, Serine/threonine-protein kinase 17A (Homo sapiens, UniProt Q9UEE5)
T3 sequence (Q9UEE5 whole entry): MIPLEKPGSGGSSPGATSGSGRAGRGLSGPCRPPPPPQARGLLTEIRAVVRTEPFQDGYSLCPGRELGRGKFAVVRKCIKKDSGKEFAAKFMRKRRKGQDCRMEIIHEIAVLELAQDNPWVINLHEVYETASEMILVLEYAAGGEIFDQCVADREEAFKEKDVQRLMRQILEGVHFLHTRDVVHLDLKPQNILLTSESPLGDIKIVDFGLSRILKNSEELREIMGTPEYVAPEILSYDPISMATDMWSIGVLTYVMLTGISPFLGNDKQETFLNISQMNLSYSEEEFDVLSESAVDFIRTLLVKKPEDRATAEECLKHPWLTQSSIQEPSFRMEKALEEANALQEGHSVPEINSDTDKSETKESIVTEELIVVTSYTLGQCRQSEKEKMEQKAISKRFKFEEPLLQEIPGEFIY

[4] = target: Serine/threonine-protein kinase 10 (Homo sapiens, UniProt O94804)
Serine/threonine-protein kinase 10, sequence (O94804 whole entry): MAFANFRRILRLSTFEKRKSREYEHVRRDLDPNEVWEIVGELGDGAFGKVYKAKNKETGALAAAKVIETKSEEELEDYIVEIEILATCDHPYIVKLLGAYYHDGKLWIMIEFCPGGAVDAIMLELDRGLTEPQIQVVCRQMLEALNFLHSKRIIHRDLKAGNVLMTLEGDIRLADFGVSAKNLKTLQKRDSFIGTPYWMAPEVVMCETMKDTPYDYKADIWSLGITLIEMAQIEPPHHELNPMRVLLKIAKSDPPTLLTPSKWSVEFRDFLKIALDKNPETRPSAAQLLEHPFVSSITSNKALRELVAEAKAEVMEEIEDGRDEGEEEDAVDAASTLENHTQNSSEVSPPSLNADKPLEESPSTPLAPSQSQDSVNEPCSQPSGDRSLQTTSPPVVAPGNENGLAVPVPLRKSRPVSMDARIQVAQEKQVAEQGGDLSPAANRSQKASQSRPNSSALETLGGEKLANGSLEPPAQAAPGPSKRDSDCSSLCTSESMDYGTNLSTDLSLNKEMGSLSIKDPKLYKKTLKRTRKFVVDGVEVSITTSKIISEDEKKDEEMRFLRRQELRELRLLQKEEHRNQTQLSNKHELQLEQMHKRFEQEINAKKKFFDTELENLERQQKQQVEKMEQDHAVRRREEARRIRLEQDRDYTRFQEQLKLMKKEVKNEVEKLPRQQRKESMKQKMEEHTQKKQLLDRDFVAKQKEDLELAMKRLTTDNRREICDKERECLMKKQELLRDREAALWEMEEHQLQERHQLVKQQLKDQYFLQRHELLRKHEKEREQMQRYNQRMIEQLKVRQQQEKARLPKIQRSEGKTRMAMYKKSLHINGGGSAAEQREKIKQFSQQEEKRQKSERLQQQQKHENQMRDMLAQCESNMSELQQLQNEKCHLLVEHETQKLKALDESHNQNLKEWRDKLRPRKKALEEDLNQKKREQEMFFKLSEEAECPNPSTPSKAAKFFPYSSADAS

[5] = target: AP2-associated protein kinase 1 (Homo sapiens, UniProt Q2M2I8)
AP2-associated protein kinase 1, sequence (Q2M2I8 whole entry): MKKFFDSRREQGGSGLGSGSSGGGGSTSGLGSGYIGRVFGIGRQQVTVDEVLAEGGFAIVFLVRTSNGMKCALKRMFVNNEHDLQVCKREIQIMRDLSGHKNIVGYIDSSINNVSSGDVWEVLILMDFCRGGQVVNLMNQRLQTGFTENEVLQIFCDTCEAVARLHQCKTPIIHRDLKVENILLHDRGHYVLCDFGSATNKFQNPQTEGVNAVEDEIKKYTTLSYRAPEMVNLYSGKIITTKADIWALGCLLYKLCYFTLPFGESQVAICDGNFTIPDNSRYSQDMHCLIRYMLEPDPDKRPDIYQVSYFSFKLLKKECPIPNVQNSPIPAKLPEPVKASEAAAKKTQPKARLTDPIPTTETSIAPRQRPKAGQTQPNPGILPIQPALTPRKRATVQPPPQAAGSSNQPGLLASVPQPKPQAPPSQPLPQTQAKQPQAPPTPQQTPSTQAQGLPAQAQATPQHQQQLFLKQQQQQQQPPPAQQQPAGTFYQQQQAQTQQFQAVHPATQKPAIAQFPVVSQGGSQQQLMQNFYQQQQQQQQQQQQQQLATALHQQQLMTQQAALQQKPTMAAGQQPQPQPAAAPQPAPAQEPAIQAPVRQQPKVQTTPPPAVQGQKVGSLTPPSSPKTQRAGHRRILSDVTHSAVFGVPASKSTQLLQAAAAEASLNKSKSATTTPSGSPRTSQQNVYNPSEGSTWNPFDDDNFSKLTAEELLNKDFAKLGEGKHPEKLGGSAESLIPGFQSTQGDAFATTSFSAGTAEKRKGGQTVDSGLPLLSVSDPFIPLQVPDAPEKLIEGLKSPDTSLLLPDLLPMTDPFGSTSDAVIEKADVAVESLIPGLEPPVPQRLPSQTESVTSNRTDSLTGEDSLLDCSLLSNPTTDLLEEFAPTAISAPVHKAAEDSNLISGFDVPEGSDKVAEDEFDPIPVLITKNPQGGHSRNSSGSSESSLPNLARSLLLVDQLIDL

[6] = target: Receptor-interacting serine/threonine-protein kinase 2 (Homo sapiens, UniProt O43353)
Receptor-interacting serine/threonine-protein kinase 2, sequence (O43353 whole entry): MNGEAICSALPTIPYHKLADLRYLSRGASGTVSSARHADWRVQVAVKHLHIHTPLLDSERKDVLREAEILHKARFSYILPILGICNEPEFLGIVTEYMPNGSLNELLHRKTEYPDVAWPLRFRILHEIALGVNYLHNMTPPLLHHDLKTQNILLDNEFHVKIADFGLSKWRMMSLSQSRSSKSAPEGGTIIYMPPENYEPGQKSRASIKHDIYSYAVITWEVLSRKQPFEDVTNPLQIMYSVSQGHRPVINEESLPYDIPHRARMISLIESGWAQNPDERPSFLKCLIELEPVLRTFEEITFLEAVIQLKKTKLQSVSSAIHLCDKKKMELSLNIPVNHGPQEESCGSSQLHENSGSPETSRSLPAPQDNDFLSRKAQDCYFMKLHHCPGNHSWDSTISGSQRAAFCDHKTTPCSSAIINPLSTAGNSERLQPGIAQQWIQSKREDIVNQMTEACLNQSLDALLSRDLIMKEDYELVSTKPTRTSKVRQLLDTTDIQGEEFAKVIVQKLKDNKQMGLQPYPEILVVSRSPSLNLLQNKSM

Measured: Kd

C#Cc1cccc(Nc2ncnc3cc(OCCOC)c(OCCOC)cc23)c1 [ERLOTINIB]
Not Active: [1] | [2] | Ephrin type-A receptor 2 | [3]

Cc1ccc(NC(=O)c2ccc(CN3CCN(C)CC3)cc2)cc1Nc1nccc(-c2cccnc2)n1 [IMATINIB]
Not Active: [1] | [4] | [2] | Ephrin type-A receptor 2 | [5] | [6]

O=c1ncn2nc(Sc3ccc(F)cc3F)ccc2c1-c1c(Cl)cccc1Cl [NEFLAMAPIMOD]
Not Active: [1] | [4] | [2] | [5] | [6] | [3]

CCOc1cc2ncc(C#N)c(Nc3ccc(F)c(Cl)c3)c2cc1NC(=O)/C=C/CN(C)C [PELITINIB]
Not Active: [1] | [2] | Ephrin type-A receptor 2 | [6]

Oc1ccc(-c2nc(-c3ccc(F)cc3)c(-c3ccncc3)[nH]2)cc1 [SB-202190]
Not Active: [1] | [4] | [2] | Ephrin type-A receptor 2 | [5] | [3]

C[S+]([O-])c1ccc(-c2nc(-c3ccc(F)cc3)c(-c3ccncc3)[nH]2)cc1 (centres undefined) [SB-203580]
Not Active: [1] | [4] | [2] | Ephrin type-A receptor 2 | [5] | [3]

CC[C@H](CO)Nc1nc(NCc2ccccc2)c2ncn(C(C)C)c2n1 [SELICICLIB]
Not Active: [4] | [2] | Ephrin type-A receptor 2 | [5] | [6] | [3]

Oc1c2ccccc2c2c3c(cccc13)N=N2 [SP-600125]
Not Active: [4] | [2] | Ephrin type-A receptor 2 | [6]

COc1cc2c(N3CCN(C(=O)Nc4ccc(OC(C)C)cc4)CC3)ncnc2cc1OCCCN1CCCCC1 [TANDUTINIB]
Not Active: [1] | [4] | [2] | Ephrin type-A receptor 2 | [5] | [6] | [3]
